Values joined by “and” are separate entries in the source; they are usually repeats but may differ in a detail not shown here. Equal entries are not always repeated. Where two headings read alike, the source gives them in different places.
Legend:
HL-60 = assay: Cell growth inhibition, resazurin, 48 h; settings: Homo sapiens, HL-60, 48 h, HL-60, 48 h drug exposure
Description: (§1) The DNA binding agent Mitoxantrone was included as a control, as HL-60/MX2 cells are reported to be resistant to this chemotherapeutic agent (Harker W. G. et al. 1989).
(§2) Concentrations ranging from 6.32 μM to 2 nM were tested for II-2 and II-4.

MES-SA/Dx5 = assay: Cell growth inhibition, resazurin, 48 h; settings: MES-SA/Dx5, 48 h drug exposure
Description: as §2

U266 = assay: Cell growth inhibition, resazurin, 48 h; assay type: cell-based, human; settings: U266, 48 h drug exposure, read-out: EC50
[1] = system: NF-κB-mediated luciferase activity in HEK293 NF-κB/Luc cells; assay: NF-κB-mediated luciferase reporter gene assay; assay type: cell-based, human; settings: for luciferase activity upon TNF-α stimulation: pretreatment of NF-κB/Luc 293 cells; for EC50: 6 h TNF-α stimulation, read-out: EC50
Description: The HEK293 NF-κB/luciferase reporter cell line is a derivative of the human embryonic kidney cell line (ATCC; CRL-1573) and carries a luciferase reporter gene under the regulation of 5×NF-κB binding sites. […] When performing the luciferase assay, the DMEM basal medium was replaced with phenol-red free DMEM basal medium and the G418 was omitted.
For NF-κB-mediated luciferase assays, HEK293 NF-κB/luciferase cells were seeded at 1.5×10^4 cells/well in 90 μl phenol-red free DMEM complete medium into Corning 3917 white opaque-bottom tissue culture plates. For Formulae II-2, II-4, II-5A and II-18, a 400 μM starting dilution was made in 100% DMSO and this dilution was used to generate an 8-point half log dilution series. […] For formula II-20, a 2.5 mM or 8 mM starting dilution was made in 100% DMSO and the final test concentrations ranged from 6.3 μM to 2.0 nM or 20 μM to 6.3 nM respectively. The plates were returned to the incubator for 1 hour. After 1 hr pretreatment, 10 μl of a 50 ng/ml TNF-α solution, prepared in the phenol-red free DMEM medium was added, and the plates were incubated for an additional 6 hours.
At the end of the TNF-α stimulation, 100 μl of Steady Lite HTS luciferase reagent (Packard Bioscience) was added to each well and the plates were left undisturbed for 10 min at room temperature before measuring the luciferase activity. The relative luciferase units (RLU) were measured by using a Fusion microplate fluorometer (Packard Bioscience).
NF-κB inducible luciferase activity was measured at 6 hours.

HT-29 = assay: Cell growth inhibition, resazurin, 48 h; assay type: cell-based, human; settings: Homo sapiens; HT-29, 48 h drug exposure; read-out: EC50
Description: (§3) RPMI 8226 (CCL-155), HT-29 (HTB-38), and B16-F10 (CRL-6475) cells were purchased from ATCC. RPMI 8226 cells were maintained in RPMI 1640 media supplemented with 10% (v/v) FBS, 2 mM L-glutamine, 1 mM sodium pyruvate and Penicillin/Streptomycin at 100 IU/ml and 100 μg/ml, respectively. HT-29 cells were maintained in McCoys 5A supplemented with 10% (v/v) FBS, 2 mM L-glutamine, 1 mM sodium pyruvate, 1% (v/v) non-essential amino acids, 10 mM HEPES and Penicillin/Streptomycin at 100 IU/ml and 100 μg/ml, respectively. B16-F10 cells were maintained in DMEM supplemented with 10% (v/v) FBS, 2 mM L-glutamine, 10 mM HEPES and Penicillin/Streptomycin at 100 IU/ml and 100 μg/ml, respectively.
(§4) RPMI 8226 cells were seeded at 2×10^4 cells/well in 90 μl RPMI media containing 10% (v/v) FBS or 1% (v/v) FBS into 96 well black-walled, clear-bottom tissue culture plates. […] Formulae II-16, II-17 and Formula II-18 were serially diluted in media containing 1% or 10% FBS and added in triplicate to the test wells. […] The final concentration of Formula II-18 ranged from 2 μM to 630 pM.

B16-F10 = assay: Cell growth inhibition, resazurin, 48 h; assay type: cell-based, mouse; settings: Mus musculus, B16-F10, 48 h, B16-F10, 48 h drug exposure; read-out: EC50
Description: as §3, §4

[2] = biological target: T1, trypsin-like activity of rabbit muscle 20S proteasome (Oryctolagus cuniculus, UniProt G1SWK8); assay: In vitro inhibition of 20S proteasome, Boc-LRR-AMC; assay type: biochemical
T1 construct: EC50 Trypsin-like; other: purified rabbit 20S proteasome, Boc-LRR-AMC; other: under the conditions tested
T1 sequence (G1SWK8 1-271): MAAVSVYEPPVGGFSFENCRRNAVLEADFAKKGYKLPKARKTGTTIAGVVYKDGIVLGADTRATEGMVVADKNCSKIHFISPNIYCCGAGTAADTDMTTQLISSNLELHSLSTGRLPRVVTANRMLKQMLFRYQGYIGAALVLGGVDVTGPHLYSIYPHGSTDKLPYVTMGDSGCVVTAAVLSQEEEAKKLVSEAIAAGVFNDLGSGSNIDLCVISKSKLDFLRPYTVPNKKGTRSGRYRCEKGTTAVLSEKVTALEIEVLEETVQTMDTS

RPMI 8226 = assay: Cell growth inhibition, resazurin, 48 h; settings: RPMI 8226, 48 h drug exposure
Description: as §3, §4

[3] = biological target: caspase-like (PGPH) activity of rabbit muscle 20S proteasome (Oryctolagus cuniculus, UniProt A0A5F9DQW2); assay: In vitro inhibition of 20S proteasome, Z-LLE-AMC
HL-60/MX2 = assay: Cell growth inhibition, resazurin, 48 h; settings: Homo sapiens, HL60/MX2, 48 h, HL-60/MX2, 48 h drug exposure
Description: as §1, §2

OVCAR-3 = assay: Cell growth inhibition, resazurin, 48 h; assay type: cell-based, human; settings: Homo sapiens; OVCAR-3, 48 h drug exposure; read-out: EC50

caspase-like (PGPH) activity of rabbit muscle 20S proteasome, sequence (A0A5F9DQW2 1-212): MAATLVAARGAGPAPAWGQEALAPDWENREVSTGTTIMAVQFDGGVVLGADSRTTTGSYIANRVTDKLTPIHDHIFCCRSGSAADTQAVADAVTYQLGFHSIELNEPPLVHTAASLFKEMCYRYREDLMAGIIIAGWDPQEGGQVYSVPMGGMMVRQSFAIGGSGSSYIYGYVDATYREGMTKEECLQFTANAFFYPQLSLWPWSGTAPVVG

SMILES | EC50 (HL-60) [µM] | EC50 (MES-SA/Dx5; Homo sapiens, MES-SA/Dx5, 48 h) [µM] | EC50 (MES-SA/Dx5) [µM] | EC50 (U266) [µM] | luciferase activity upon TNF-α stimulation [1] | EC50 (HT-29) [µM] | EC50 (B16-F10) [µM] | inhibition of the trypsin-like activity of the 20S proteasome ([2]; under the conditions tested) | EC50 (RPMI 8226; Homo sapiens, RPMI-8226, 48 h) [µM] | EC50 ([3]; read-out: EC50 Caspase-like, purified rabbit 20S proteasome, Z-LLE-AMC) | EC50 (U266; Homo sapiens, U-266, 48 h) [µM] | inhibition of the trypsin-like activity of the 20S proteasome [2] | EC50 ([3]; read-out: EC50 Caspase-like) [µM] | EC50 (HL-60/MX2) [µM] | EC50 ([1]; 1 h pretreatment) [µM] | EC50 ([1]; Homo sapiens, HEK293, 1 h pretreatment) [µM] | EC50 (OVCAR-3) [µM] | EC50 (RPMI 8226) [µM] | EC50 ([3]; read-out: EC50 Caspase-like (PGPH))
C[C@@]12OC(=O)[C@]1([C@@H](O)C1CCCCC1)NC(=O)[C@@H]2CCCl [Formula II-2] | 0.237 | 0.22 | 0.138 | 0.039 | dose-dependent decrease of luciferase activity | 0.129 ± 0.021 | 0.194 | able to inhibit the trypsin-like activity | 0.049 | 1.3 µM and 1.7 µM |  |  |  |  |  |  |  |  | 
CC[C@H]1C(=O)N[C@@]2([C@@H](O)C3CCCCC3)C(=O)O[C@@]12C [Formula II-3] |  | > 20 |  |  |  | > 20 |  |  | > 20 |  | > 20 | able to inhibit the trypsin-like activity | > 20 |  |  |  |  |  | 
C[C@@]12OC(=O)[C@]1([C@@H](O)C1CCCCC1)NC(=O)[C@@H]2CCBr [Formula II-4] | 0.143 | 0.178 | 0.093 | 0.039 | dose-dependent decrease of luciferase activity |  | 0.163 |  | 0.057 |  | 0.034 | able to inhibit the trypsin-like activity |  | 0.097 | 0.088 | 0.067 | > 6.32 | 0.051 | 0.85 µM and 0.637 µM

Source: patent US7572606B1 (Nereus Pharmaceuticals, Inc., priority 2005, dated 2009)
